Laboratory results as given in ChEMBL document CHEMBL4477244, “Synthesis and biological evaluation of matrine derivatives as anti-hepatocellular cancer agents” (Bioorg Med Chem Lett, 2016).
The source made the active and inactive calls. No cut-off for these calls is given here.

Key:
Bel-7402 [1] = test: Antiproliferative activity against human Bel7402 cells after 48 hrs by MTT assay; format: functional, cell-based; conditions: for IC50: Bel-7402, 48 h
SGC-7901 = test: Antiproliferative activity against human SGC7901 cells after 48 hrs by MTT assay; format: functional, cell-based; conditions: SGC-7901, 48 h
MCF7 = test: Antiproliferative activity against human MCF7 cells after 48 hrs by MTT assay; format: functional, cell-based; conditions: MCF7, 48 h
A549 = test: Antiproliferative activity against human A549 cells after 48 hrs by MTT assay; format: functional, cell-based; conditions: A549, 48 h
HepG2 [2] = test: Upregulation of P27 in human HepG2 cells at 5 to 20 uM after 24 hrs by Western blot analysis; format: functional, cell-based
HepG2 [3] = test: Cell cycle arrest in human HepG2 cells assessed as accumulation at G1 phase after 24 hrs by propidium iodide staining-based flow cytometry; format: functional
HepG2 [4] = test: Upregulation of E-cadherin in human HepG2 cells after 48 hrs by Western blot analysis; format: functional, cell-based
Bel-7402 [5] = test: Downregulation of N-cadherin in human Bel7402 cells after 48 hrs by Western blot analysis; format: functional, cell-based
HepG2 [6] = test: Downregulation of N-cadherin in human HepG2 cells after 48 hrs by Western blot analysis; format: functional, cell-based
Bel-7402 [7] = test: Antimigratory activity in human Bel7402 cells assessed as cell migration at 10 uM incubated for 48 hrs by wound healing assay (reference value: 60%); format: functional
Bel-7402 [8] = test: Upregulation of E-cadherin in human Bel7402 cells after 48 hrs by Western blot analysis; format: functional, cell-based
HepG2 [9] = test: Antiproliferative activity against human HepG2 cells at 5 to 40 uM by MTT assay; format: functional, cell-based; conditions: TDE = time-dependent effect
Bel-7402 [10] = test: Antiproliferative activity against human Bel7402 cells at 5 to 40 uM by MTT assay; format: functional, cell-based; conditions: TDE = time-dependent effect
Bel-7402 [11] = test: Cell cycle arrest in human Bel7402 cells assessed as accumulation at G1 phase at 20 uM after 24 hrs by propidium iodide staining-based flow cytometry (reference value: 49%); format: functional
Bel-7402 [12] = test: Antimigratory activity in human Bel7402 cells assessed as cell migration at 20 uM incubated for 48 hrs by wound healing assay (reference value: 60%); format: functional
HepG2 [13] = test: Cell cycle arrest in human HepG2 cells assessed as accumulation at G1 phase at 10 uM after 24 hrs by propidium iodide staining-based flow cytometry (reference value: 48%); format: functional
HepG2 [14] = test: Upregulation of P21 in human HepG2 cells at 5 to 20 uM after 24 hrs by Western blot analysis; format: functional, cell-based
Bel-7402 [15] = test: Upregulation of P27 in human Bel7402 cells at 5 to 20 uM after 24 hrs by Western blot analysis; format: functional, cell-based
HepG2 [16] = test: Cell cycle arrest in human HepG2 cells assessed as accumulation at G1 phase at 20 uM after 24 hrs by propidium iodide staining-based flow cytometry (reference value: 48%); format: functional
HepG2 [17] = test: Antimigratory activity in human HepG2 cells assessed as cell migration at 20 uM incubated for 48 hrs by wound healing assay (reference value: 58%); format: functional
Bel-7402 [18] = test: Cell cycle arrest in human Bel7402 cells assessed as accumulation at G1 phase after 24 hrs by propidium iodide staining-based flow cytometry; format: functional
HepG2 [19] = test: Antimigratory activity in human HepG2 cells assessed as cell migration at 10 uM incubated for 48 hrs by wound healing assay (reference value: 58%); format: functional
Bel-7402 [20] = test: Cell cycle arrest in human Bel7402 cells assessed as accumulation at G1 phase at 10 uM after 24 hrs by propidium iodide staining-based flow cytometry (reference value: 49%); format: functional
Bel-7402 [21] = test: Upregulation of P21 in human Bel7402 cells at 5 to 20 uM after 24 hrs by Western blot analysis; format: functional, cell-based
HepG2 [22] = test: Antiproliferative activity against human HepG2 cells after 48 hrs by MTT assay; format: functional, cell-based

O=c1c2c(oc3cc(C(F)(F)F)ccc13)N1C[C@@H]3CCC[N+]4([O-])CCC[C@@H]([C@H]34)[C@H]1CC2 (stereo partly specified) was tested, and the IC50 (Bel-7402 [1]) was 66 µM, the IC50 (SGC-7901) was 79.1 µM and the IC50 (MCF7) was 73.8 µM. It also gave an IC50 (A549) of 114 µM.
In the case of O=c1c2c(oc3cc(Cl)ccc13)N1C[C@@H]3CCCN4CCC[C@@H]([C@H]34)[C@H]1CC2, the Activity (HepG2 [2]) is reported as “Active”, the IC50 (Bel-7402 [1]) is reported as 25.2 µM and the Activity (HepG2 [3]) is reported as “Dose-dependent effect”. The Activity (HepG2 [4]) was “Dose-dependent effect”, the Activity (Bel-7402 [5]) was “Dose-dependent effect” and the Activity (HepG2 [6]) was “Dose-dependent effect”. The Activity (Bel-7402 [7]) was 75%, the Activity (Bel-7402 [8]) was “Dose-dependent effect” and the Activity (HepG2 [9]) was “Tde”. The Activity (Bel-7402 [10]) was “Tde”, the Activity (Bel-7402 [11]) was 79% and the IC50 (SGC-7901) was 28.9 µM. The Activity (Bel-7402 [12]) was 85%, the Activity (HepG2 [13]) was 54% and the Activity (HepG2 [14]) was “Active”. For the same molecule, the Activity (Bel-7402 [15]) was “Active”, the Activity (HepG2 [16]) was 65% and the Activity (HepG2 [17]) was 83%. The Activity (Bel-7402 [18]) was “Dose-dependent effect”, the Activity (HepG2 [19]) was 80% and the Activity (Bel-7402 [20]) was 67%. For the same molecule, the Activity (Bel-7402 [21]) was “Active”, the IC50 (MCF7) was 28.1 µM and the Activity (HepG2 [22]) was “Dose-dependent effect”. It also gave an IC50 (A549) of 36 µM.
Work on Cc1ccc2c(=O)c3c(oc2c1)N1C[C@@H]2CCC[N+]4([O-])CCC[C@@H]([C@H]24)[C@H]1CC3 (stereo partly specified) yielded an IC50 (Bel-7402 [1]) of 49.3 µM, an IC50 (SGC-7901) of 57.1 µM and an IC50 (MCF7) of 53.3 µM. It also gave an IC50 (A549) of 73.8 µM.
COc1cccc2oc3c(c(=O)c12)CC[C@@H]1[C@H]2CCCN4CCC[C@@H](CN31)[C@@H]24 gave an IC50 (Bel-7402 [1]) of 69.5 µM, an IC50 (SGC-7901) of 81.7 µM and an IC50 (MCF7) of 74.1 µM. The IC50 (A549) was 93.5 µM.
In the case of O=c1c2c(oc3ccc(Cl)cc13)N1C[C@@H]3CCCN4CCC[C@@H]([C@H]34)[C@H]1CC2, the IC50 (Bel-7402 [1]) is reported as 36.2 µM, the IC50 (SGC-7901) is reported as 45.2 µM and the IC50 (MCF7) is reported as 48.2 µM. For the same molecule, the IC50 (A549) was 57 µM.
O=c1c2c(oc3ccc(O)cc13)N1C[C@@H]3CCCN4CCC[C@@H]([C@H]34)[C@H]1CC2 was tested, and the IC50 (Bel-7402 [1]) was > 100 µM, the IC50 (SGC-7901) was > 100 µM and the IC50 (MCF7) was > 100 µM. The IC50 (A549) was > 100 µM.
In the case of O=c1c2c(oc3ccccc13)N1C[C@@H]3CCCN4CCC[C@@H]([C@H]34)[C@H]1CC2, the IC50 (Bel-7402 [1]) is reported as > 100 µM, the IC50 (SGC-7901) is reported as > 100 µM and the IC50 (MCF7) is reported as > 100 µM. The IC50 (A549) was > 100 µM.
COc1ccc2c(=O)c3c(oc2c1)N1C[C@@H]2CCCN4CCC[C@@H]([C@H]24)[C@H]1CC3 was tested, and the IC50 (Bel-7402 [1]) was 48 µM, the IC50 (SGC-7901) was 67.2 µM and the IC50 (MCF7) was 77.4 µM. The IC50 (A549) was 97.6 µM.
In the case of O=c1c2c(oc3cc(C(F)(F)F)ccc13)N1C[C@@H]3CCCN4CCC[C@@H]([C@H]34)[C@H]1CC2, the IC50 (Bel-7402 [1]) is reported as 31.4 µM, the IC50 (SGC-7901) is reported as 34.9 µM and the IC50 (MCF7) is reported as 30.7 µM. The IC50 (A549) was 41.2 µM.
Molecule Cc1ccc2c(=O)c3c(oc2c1)N1C[C@@H]2CCCN4CCC[C@@H]([C@H]24)[C@H]1CC3 has an IC50 (Bel-7402 [1]) of 30.3 µM, an IC50 (SGC-7901) of 46.8 µM and an IC50 (MCF7) of 48.6 µM. The IC50 (A549) was 52.9 µM.
In the case of Cc1cccc2c(=O)c3c(oc12)N1C[C@@H]2CCCN4CCC[C@@H]([C@H]24)[C@H]1CC3, the IC50 (Bel-7402 [1]) is reported as 40.7 µM, the IC50 (SGC-7901) is reported as 51.5 µM and the IC50 (MCF7) is reported as 52.9 µM. For the same molecule, the IC50 (A549) was 73.2 µM.
In the case of O=C1CCC[C@@H]2[C@H]3CCCN4CCC[C@@H](CN12)[C@@H]34 [MATRINE], the Activity (Bel-7402 [1]) is reported as “Dose-dependent effect”, the IC50 (Bel-7402 [1]) is reported as 2060 µM and the IC50 (SGC-7901) is reported as 1380 µM. It also gave an IC50 (MCF7) of 2500 µM and an IC50 (A549) of 3920 µM.
With O=c1c2c(oc3cc(O)ccc13)N1C[C@@H]3CCCN4CCC[C@@H]([C@H]34)[C@H]1CC2 the IC50 (Bel-7402 [1]) was > 100 µM, the IC50 (SGC-7901) was > 100 µM and the IC50 (MCF7) was > 100 µM. The IC50 (A549) was > 100 µM.
In the case of O=c1c2c(oc3cccc(O)c13)N1C[C@@H]3CCCN4CCC[C@@H]([C@H]34)[C@H]1CC2, the IC50 (Bel-7402 [1]) is reported as > 100 µM, the IC50 (SGC-7901) is reported as > 100 µM and the IC50 (MCF7) is reported as > 100 µM. The IC50 (A549) was > 100 µM.
Cc1ccc2oc3c(c(=O)c2c1)CC[C@@H]1[C@H]2CCCN4CCC[C@@H](CN31)[C@@H]24 showed an IC50 (Bel-7402 [1]) of 37 µM, an IC50 (SGC-7901) of 40.5 µM and an IC50 (MCF7) of 57.1 µM. For the same molecule, the IC50 (A549) was 97.2 µM.
COc1cccc2c(=O)c3c(oc12)N1C[C@@H]2CCCN4CCC[C@@H]([C@H]24)[C@H]1CC3 gave an IC50 (Bel-7402 [1]) of 71.9 µM, an IC50 (SGC-7901) of 81.6 µM and an IC50 (MCF7) of 75.4 µM. The IC50 (A549) was 96.5 µM.
